Reference: article PMC8330742, “New benzothieno[2,3-c]pyridines as non-steroidal CYP17 inhibitors: design, synthesis, anticancer screening, apoptosis induction, and in silico ADME profile studies” (Journal of Enzyme Inhibition and Medicinal Chemistry, 2021)

Legend:
HOP-62 = experiment: NCI-60 SRB screen; format: cell-based, human; settings: Homo sapiens; single dose 10^−5 M; HOP-62, Non-small cell lung carcinoma; read-out: Growth inhibition (%)
SW-620 = experiment: NCI-60 SRB screen; format: cell-based; settings: Homo sapiens; single dose 10^−5 M; SW-620, Colon cancer; read-out: Growth inhibition (%)
HOP-92 = experiment: NCI-60 SRB screen; format: cell-based, human; settings: Homo sapiens; single dose 10^−5 M; HOP-92, Non-small cell lung carcinoma; read-out: Growth inhibition (%)
NCI-H522 = experiment: NCI-60 SRB screen; format: cell-based, human; settings: Homo sapiens; single dose 10^−5 M; NCI-H522, Non-small cell lung carcinoma; read-out: Growth inhibition (%)
SF-295 = experiment: NCI-60 SRB screen; format: cell-based, human; settings: Homo sapiens; single dose 10^−5 M; SF-295, CNS cancer; read-out: Growth inhibition (%)
A549/ATCC = experiment: NCI-60 SRB screen; format: cell-based, human; settings: Homo sapiens, single dose 10^−5 M, Non-small cell lung carcinoma, read-out: Growth inhibition (%)
ACHN = experiment: NCI-60 SRB screen; format: cell-based; settings: Homo sapiens, single dose 10^−5 M, Renal cancer, read-out: Growth inhibition (%)
SK-MEL-5 = experiment: NCI-60 SRB screen; format: cell-based, human; settings: Homo sapiens; single dose 10^−5 M; SK-MEL-5, Melanoma; read-out: Growth inhibition (%)
COLO 205 = experiment: NCI-60 SRB screen; format: cell-based, human; settings: Homo sapiens; single dose 10^−5 M; COLO 205, Colon cancer; read-out: Growth inhibition (%)
OVCAR-8 = experiment: NCI-60 SRB screen; format: cell-based, human; settings: Homo sapiens; single dose 10^−5 M; OVCAR-8, Ovarian cancer; read-out: Growth inhibition (%)
[1] = tested on: panel of 60 cancer cell lines; experiment: NCI-60 SRB screen, mean or range over the panel; format: cell-based, human; settings: Homo sapiens; mean over the cell lines; single dose 10^−5 M; read-out: Mean growth inhibition (%)
SF-268 = experiment: NCI-60 SRB screen; format: cell-based, human; settings: Homo sapiens; single dose 10^−5 M; SF-268, CNS cancer; read-out: Growth inhibition (%)
K-562 = experiment: NCI-60 SRB screen; format: cell-based, human; settings: Homo sapiens, K562; single dose 10^−5 M; K-562, Leukaemia; read-out: Growth inhibition (%)
UACC-62 = experiment: NCI-60 SRB screen; format: cell-based, human; settings: Homo sapiens; single dose 10^−5 M; UACC-62, Melanoma; read-out: Growth inhibition (%)
M14 = experiment: NCI-60 SRB screen; format: cell-based, human; settings: Homo sapiens; single dose 10^−5 M; M14, Melanoma; read-out: Growth inhibition (%)
HL-60(TB) = experiment: NCI-60 SRB screen; format: cell-based, human; settings: Homo sapiens; single dose 10^−5 M; HL-60(TB), Leukaemia; read-out: Growth inhibition (%)
NCI-H322M = experiment: NCI-60 SRB screen; format: cell-based, human; settings: Homo sapiens, single dose 10^−5 M, Non-small cell lung carcinoma, read-out: Growth inhibition (%)
OVCAR-4 = experiment: NCI-60 SRB screen; format: cell-based, human; settings: Homo sapiens; single dose 10^−5 M; OVCAR-4, Ovarian cancer; read-out: Growth inhibition (%)
SK-OV-3 = experiment: NCI-60 SRB screen; format: cell-based, human; settings: Homo sapiens; single dose 10^−5 M; SK-OV-3, Ovarian cancer; read-out: Growth inhibition (%)
CAKI-1 = experiment: NCI-60 SRB screen; format: cell-based, human; settings: Homo sapiens; single dose 10^−5 M; CAKI-1, Renal cancer; read-out: Growth inhibition (%)
786-0 = experiment: NCI-60 SRB screen; format: cell-based; settings: Homo sapiens; single dose 10^−5 M; 786-0, Renal cancer; read-out: Growth inhibition (%)
LOX IMVI = experiment: NCI-60 SRB screen; format: cell-based, human; settings: Homo sapiens, single dose 10^−5 M, Melanoma, read-out: Growth inhibition (%)
RXF 393 = experiment: NCI-60 SRB screen; format: cell-based, human; settings: Homo sapiens; single dose 10^−5 M; RXF 393, Renal cancer; read-out: Growth inhibition (%)
HCT-15 = experiment: NCI-60 SRB screen; format: cell-based, human; settings: Homo sapiens; single dose 10^−5 M; HCT-15, Colon cancer; read-out: Growth inhibition (%)
EKVX = experiment: NCI-60 SRB screen; format: cell-based, human; settings: Homo sapiens, single dose 10^−5 M, Non-small cell lung carcinoma, read-out: Growth inhibition (%)
SK-MEL-28 = experiment: NCI-60 SRB screen; format: cell-based; settings: Homo sapiens; single dose 10^−5 M; SK-MEL-28, Melanoma; read-out: Growth inhibition (%)
NCI-H460 = experiment: NCI-60 SRB screen; format: cell-based, human; settings: Homo sapiens; single dose 10^−5 M; NCI-H460, Non-small cell lung carcinoma; read-out: Growth inhibition (%)
TK-10 = experiment: NCI-60 SRB screen; format: cell-based, human; settings: Homo sapiens; single dose 10^−5 M; TK-10, Renal cancer; read-out: Growth inhibition (%)
OVCAR-3 = experiment: NCI-60 SRB screen; format: cell-based, human; settings: Homo sapiens; single dose 10^−5 M; OVCAR-3, Ovarian cancer; read-out: Growth inhibition (%)
NCI-H23 = experiment: NCI-60 SRB screen; format: cell-based, human; settings: Homo sapiens; single dose 10^−5 M; NCI-H23, Non-small cell lung carcinoma; read-out: Growth inhibition (%)
NCI-H226 = experiment: NCI-60 SRB screen; format: cell-based, human; settings: Homo sapiens; single dose 10^−5 M; NCI-H226, Non-small cell lung carcinoma; read-out: Growth inhibition (%)
MOLT-4 = experiment: NCI-60 SRB screen; format: cell-based; settings: Homo sapiens; single dose 10^−5 M; MOLT-4, Leukaemia; read-out: Growth inhibition (%)
UACC-257 = experiment: NCI-60 SRB screen; format: cell-based, human; settings: Homo sapiens; single dose 10^−5 M; UACC-257, Melanoma; read-out: Growth inhibition (%)
UO-31 = experiment: NCI-60 SRB screen; format: cell-based, human; settings: Homo sapiens; single dose 10^−5 M; UO-31, Renal cancer; read-out: Growth inhibition (%)
NCI/ADR-RES = experiment: NCI-60 SRB screen; format: cell-based, human; settings: Homo sapiens, single dose 10^−5 M, Ovarian cancer, read-out: Growth inhibition (%)
IGROV1 = experiment: NCI-60 SRB screen; format: cell-based, human; settings: Homo sapiens, IGROV-1; single dose 10^−5 M; IGROV1, Ovarian cancer; read-out: Growth inhibition (%)
SR = experiment: NCI-60 SRB screen; format: cell-based; settings: Homo sapiens, single dose 10^−5 M, Leukaemia, read-out: Growth inhibition (%)
SN12C = experiment: NCI-60 SRB screen; format: cell-based, human; settings: Homo sapiens, SN12C; single dose 10^−5 M; SN 12 C, Renal cancer; read-out: Growth inhibition (%)
MDA-MB-435 = experiment: NCI-60 SRB screen; format: cell-based; settings: Homo sapiens, MDA-MB-435, read-out: Growth inhibition (%)
KM12 = experiment: NCI-60 SRB screen; format: cell-based, human; settings: Homo sapiens; single dose 10^−5 M; KM12, Colon cancer; read-out: Growth inhibition (%)
HCC-2998 = experiment: NCI-60 SRB screen; format: cell-based, human; settings: Homo sapiens; single dose 10^−5 M; HCC-2998, Colon cancer; read-out: Growth inhibition (%)
HCT-116 = experiment: NCI-60 SRB screen; format: cell-based, human; settings: Homo sapiens; single dose 10^−5 M; HCT-116, Colon cancer; read-out: Growth inhibition (%)
SK-MEL-2 = experiment: NCI-60 SRB screen; format: cell-based, human; settings: Homo sapiens; single dose 10^−5 M; SK-MEL-2, Melanoma; read-out: Growth inhibition (%)
HT-29 = experiment: NCI-60 SRB screen; format: cell-based; settings: Homo sapiens; single dose 10^−5 M; HT-29, Colon cancer; read-out: Growth inhibition (%)

## N#CC1=C(N2CCCCC2)NC(c2cccc([N+](=O)[O-])c2)c2sc3c(F)cccc3c21 (centres unmarked) [Compound 8f, 4-Cyano-3-(piperidin-1-yl)-8-fluoro-1-(3-nitrophenyl)-1,2-dihydro [1]benzothieno[2,3-c]pyridine]
HOP-62
  inhibition at 10 µM: 10.2%
SW-620
  inhibition at 10 µM: 4.11%
HOP-92
  inhibition at 10 µM: 4.9%
NCI-H522
  inhibition at 10 µM: 9.54%
SF-295
  inhibition at 10 µM: -9.62%
A549/ATCC
  inhibition at 10 µM: -2.65%
ACHN
  inhibition at 10 µM: 14.3%
SK-MEL-5
  inhibition at 10 µM: -14.8%
COLO 205
  inhibition at 10 µM: -16.7%
OVCAR-8
  inhibition at 10 µM: -0.33%
[1]
  inhibition at 10 µM: 0.008%
SF-268
  inhibition at 10 µM: 9.44%
K-562
  inhibition at 10 µM: 23.1%
UACC-62
  inhibition at 10 µM: 15.5%
M14
  inhibition at 10 µM: 0.58%
HL-60(TB)
  inhibition at 10 µM: -3.35%
NCI-H322M
  inhibition at 10 µM: -5.64%
OVCAR-4
  inhibition at 10 µM: 0.9%
SK-OV-3
  inhibition at 10 µM: 7.22%
CAKI-1
  inhibition at 10 µM: 28.7%
786-0
  inhibition at 10 µM: -12.1%
LOX IMVI
  inhibition at 10 µM: 2.61%
RXF 393
  inhibition at 10 µM: -6.31%
HCT-15
  inhibition at 10 µM: -4.78%
EKVX
  inhibition at 10 µM: 5.51%
SK-MEL-28
  inhibition at 10 µM: -10.7%
NCI-H460
  inhibition at 10 µM: 2.2%
TK-10
  inhibition at 10 µM: -53.1%
OVCAR-3
  inhibition at 10 µM: 0.09%
NCI-H23
  inhibition at 10 µM: 4.09%
NCI-H226
  inhibition at 10 µM: 15.7%
MOLT-4
  inhibition at 10 µM: 5.31%
UACC-257
  inhibition at 10 µM: -12.7%
UO-31
  inhibition at 10 µM: 33.3%
NCI/ADR-RES
  inhibition at 10 µM: -1.61%
IGROV1
  inhibition at 10 µM: 14.9%
SR
  inhibition at 10 µM: 11.1%
SN12C
  inhibition at 10 µM: 3.7%
MDA-MB-435
  inhibition at 10 µM: -6.93%
KM12
  inhibition at 10 µM: 5.13%
HCC-2998
  inhibition at 10 µM: -23.2%
HCT-116
  inhibition at 10 µM: 4.5%
SK-MEL-2
  inhibition at 10 µM: 2.71%
HT-29
  inhibition at 10 µM: -4.42%
